In PubChem BioAssay (NCI):
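Method: 48-hour compound exposure of cells in 96-well plates, five concentrations, linear interpolation of endpoints. TGI: concentration producing complete growth inhibition.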

Columns and labels:
Test in all cases: growth of human tumour cells (NCI), 48 h
ACHN renal = test system: ACHN renal
MCF7 breast = test system: MCF7 breast
SF-268 CNS = test system: SF-268 CNS
UACC-257 melanoma = test system: UACC-257 melanoma
CAKI-1 renal = test system: CAKI-1 renal
OVCAR-3 ovarian = test system: OVCAR-3 ovarian
HCT-116 colon = test system: HCT-116 colon
SN12C renal = test system: SN12C renal
RPMI-8226 leukemia = test system: RPMI-8226 leukemia
SNB-19 CNS = test system: SNB-19 CNS
786-0 renal = test system: 786-0 renal
NCI-H460 lung = test system: NCI-H460 lung
SK-MEL-28 melanoma = test system: SK-MEL-28 melanoma
HCT-15 colon = test system: HCT-15 colon
MOLT-4 leukemia = test system: MOLT-4 leukemia
UACC-62 melanoma = test system: UACC-62 melanoma
SK-OV-3 ovarian = test system: SK-OV-3 ovarian
MDA-MB-231 breast = test system: MDA-MB-231 breast
HT29 colon = test system: HT29 colon
SK-MEL-5 melanoma = test system: SK-MEL-5 melanoma
CCRF-CEM leukemia = test system: CCRF-CEM leukemia
NCI-H522 lung = test system: NCI-H522 lung
HOP-62 NSCLC = test system: HOP-62 NSCLC
T-47D breast = test system: T-47D breast
RXF 393 renal = test system: RXF 393 renal
SW-620 colon = test system: SW-620 colon
BT-549 breast = test system: BT-549 breast
UO-31 renal = test system: UO-31 renal
EKVX NSCLC = test system: EKVX NSCLC
LOX IMVI melanoma = test system: LOX IMVI melanoma
KM12 colon = test system: KM12 colon
MDA-MB-435 = test system: MDA-MB-435
U251 CNS = test system: U251 CNS
IGROV1 ovarian = test system: IGROV1 ovarian
SF-539 CNS = test system: SF-539 CNS
NCI-H23 lung = test system: NCI-H23 lung
HOP-92 NSCLC = test system: HOP-92 NSCLC
SF-295 CNS = test system: SF-295 CNS
COLO 205 colon = test system: COLO 205 colon
A549 NSCLC = test system: A549 NSCLC
NCI/ADR-RES ovarian = test system: NCI/ADR-RES ovarian
PC-3 prostate = test system: PC-3 prostate
HS 578T breast = test system: HS 578T breast
SNB-75 CNS = test system: SNB-75 CNS
OVCAR-4 ovarian = test system: OVCAR-4 ovarian
OVCAR-8 ovarian = test system: OVCAR-8 ovarian
MALME-3M melanoma = test system: MALME-3M melanoma
DU-145 prostate = test system: DU-145 prostate
SK-MEL-2 melanoma = test system: SK-MEL-2 melanoma
OVCAR-5 ovarian = test system: OVCAR-5 ovarian
HL-60(TB) leukemia = test system: HL-60(TB) leukemia
M14 melanoma = test system: M14 melanoma
A498 renal = test system: A498 renal
K-562 leukemia = test system: K-562 leukemia
TK-10 renal = test system: TK-10 renal
SR leukemia = test system: SR leukemia
NCI-H226 lung = test system: NCI-H226 lung

CCOC(=O)c1ccc2nc(NC(=O)COC(=O)CSc3nc(C)cc(C)n3)sc2c1
TGI (ACHN renal): > 100 µM
TGI (MCF7 breast): > 100 µM
TGI (SF-268 CNS): > 100 µM
TGI (UACC-257 melanoma): > 100 µM
TGI (CAKI-1 renal): > 100 µM
TGI (OVCAR-3 ovarian): 91.5 µM
TGI (HCT-116 colon): > 100 µM
TGI (SN12C renal): > 100 µM
TGI (RPMI-8226 leukemia): > 100 µM
TGI (SNB-19 CNS): > 100 µM
TGI (786-0 renal): > 100 µM
TGI (NCI-H460 lung): > 100 µM
TGI (SK-MEL-28 melanoma): > 100 µM
TGI (HCT-15 colon): > 100 µM
TGI (MOLT-4 leukemia): > 100 µM
TGI (UACC-62 melanoma): > 100 µM
TGI (SK-OV-3 ovarian): > 100 µM
TGI (MDA-MB-231 breast): > 100 µM
TGI (HT29 colon): > 100 µM
TGI (SK-MEL-5 melanoma): > 100 µM
TGI (CCRF-CEM leukemia): 15.5 µM
TGI (NCI-H522 lung): > 100 µM
TGI (HOP-62 NSCLC): 50.5 µM
TGI (T-47D breast): 63.6 µM
TGI (RXF 393 renal): > 100 µM
TGI (SW-620 colon): > 100 µM
TGI (BT-549 breast): > 100 µM
TGI (UO-31 renal): 38.5 µM
TGI (EKVX NSCLC): 62 µM
TGI (LOX IMVI melanoma): > 100 µM
TGI (KM12 colon): > 100 µM
TGI (MDA-MB-435): > 100 µM
TGI (U251 CNS): > 100 µM
TGI (IGROV1 ovarian): > 100 µM
TGI (SF-539 CNS): 80.6 µM
TGI (NCI-H23 lung): > 100 µM
TGI (HOP-92 NSCLC): > 100 µM
TGI (SF-295 CNS): > 100 µM
TGI (COLO 205 colon): > 100 µM
TGI (A549 NSCLC): > 100 µM
TGI (NCI/ADR-RES ovarian): > 100 µM
TGI (PC-3 prostate): > 100 µM
TGI (HS 578T breast): > 100 µM
TGI (SNB-75 CNS): 60.4 µM
TGI (OVCAR-4 ovarian): > 100 µM
TGI (OVCAR-8 ovarian): > 100 µM
TGI (MALME-3M melanoma): > 100 µM
TGI (DU-145 prostate): > 100 µM
TGI (SK-MEL-2 melanoma): > 100 µM
TGI (OVCAR-5 ovarian): 86.1 µM
TGI (HL-60(TB) leukemia): 33.9 µM
TGI (M14 melanoma): > 100 µM
TGI (A498 renal): > 100 µM
TGI (K-562 leukemia): > 100 µM
TGI (TK-10 renal): > 100 µM
TGI (SR leukemia): > 100 µM

Nc1nc(Cl)cc(N=Nc2ccccc2)n1
TGI (ACHN renal): 97.2 µM
TGI (MCF7 breast): > 100 µM
TGI (SF-268 CNS): > 100 µM
TGI (UACC-257 melanoma): > 100 µM
TGI (CAKI-1 renal): > 100 µM
TGI (OVCAR-3 ovarian): 30.3 µM
TGI (HCT-116 colon): 32.2 µM
TGI (SN12C renal): > 100 µM
TGI (RPMI-8226 leukemia): > 100 µM
TGI (SNB-19 CNS): > 100 µM
TGI (786-0 renal): > 100 µM
TGI (SK-MEL-28 melanoma): > 100 µM
TGI (HCT-15 colon): 35 µM
TGI (MOLT-4 leukemia): > 100 µM
TGI (UACC-62 melanoma): > 100 µM
TGI (SK-OV-3 ovarian): > 100 µM
TGI (MDA-MB-231 breast): > 100 µM
TGI (HT29 colon): > 100 µM
TGI (SK-MEL-5 melanoma): 40 µM
TGI (CCRF-CEM leukemia): > 100 µM
TGI (NCI-H522 lung): > 100 µM
TGI (HOP-62 NSCLC): 60.1 µM
TGI (T-47D breast): > 100 µM
TGI (NCI-H226 lung): > 100 µM
TGI (RXF 393 renal): 97.2 µM
TGI (SW-620 colon): > 100 µM
TGI (BT-549 breast): > 100 µM
TGI (UO-31 renal): > 100 µM
TGI (EKVX NSCLC): > 100 µM
TGI (LOX IMVI melanoma): 67 µM
TGI (KM12 colon): > 100 µM
TGI (MDA-MB-435): > 100 µM
TGI (IGROV1 ovarian): 51.3 µM
TGI (SF-539 CNS): > 100 µM
TGI (NCI-H23 lung): 55.5 µM
TGI (HOP-92 NSCLC): 7.53 µM
TGI (SF-295 CNS): > 100 µM
TGI (COLO 205 colon): > 100 µM
TGI (A549 NSCLC): > 100 µM
TGI (NCI/ADR-RES ovarian): > 100 µM
TGI (HS 578T breast): > 100 µM
TGI (SNB-75 CNS): > 100 µM
TGI (OVCAR-8 ovarian): 97.6 µM
TGI (MALME-3M melanoma): > 100 µM
TGI (DU-145 prostate): > 100 µM
TGI (SK-MEL-2 melanoma): 46.9 µM
TGI (OVCAR-5 ovarian): > 100 µM
TGI (HL-60(TB) leukemia): 75 µM
TGI (M14 melanoma): > 100 µM
TGI (A498 renal): > 100 µM
TGI (K-562 leukemia): > 100 µM
TGI (TK-10 renal): > 100 µM
TGI (SR leukemia): > 100 µM
